One test concerns the target BTK (Homo sapiens (Human), UniProt Q06187). Put plainly: Inhibition of IL-6 production in B cells co-stimulated with ODN 2006 and anti-hIgD. It is filed as cell-based. The following applies: primary CD19+ B cells, anti-human IgD + ODN 2006 stimulation, 18-24 hours; read-out: B-cell IL-6 IC50. The method, then: Inhibition of IL-6 Production in B Cells Co-Stimulated with ODN 2006 and Anti-hIgD
Primary CD19+ B cells (AllCells # PB010F) are thawed and plated in RPMI containing 10% HI FBS in a 384-well tissue cultured plate at 20,000 cells/well. The cells are treated with test compound (0.5% DMSO final concentration) and incubated for 1 hour at 37° C., 5% CO2. Cells are then stimulated with 5 μg/mL Goat F(ab′)2 anti-human IgD (SouthernBiotech #2032) and 2 uM ODN 2006 (InvivoGen # till-2006) and incubated for 18-24 hours at 37° C., 5% CO2. IL-6 in the supernatant is measured using Meso Scale Discovery kit # K211AKB-6.
(§1) The compounds described herein show a range of selectivity against EGFR as measured in cellular assays (BTK activity measured by IL-6 production in primary CD19^+ cells; EGFR activity measured by EGFR phosphorylation in A431 cells).

The target in the next test is EGFR (Homo sapiens (Human), UniProt P00533). Put plainly: Inhibition of EGFR autophosphorylation in A431 human epithelial cells stimulated with epithelial growth factor. It counts as cell-based. The following applies: 16 hours compound, EGF 60 ng/mL 10 minutes, read-out: A431 p-EGFR IC50. On the procedure:
Inhibition of EGFR Autophosphorylation in A431 Human Epithelial Cells Stimulated with Epithelial Growth Factor
A431 cells (ATCC # CRL-1555 FZ) are thawed and plated in DMEM containing 10% FBS in a 384-well tissue culture treated plate at 15,000 cells/well. After incubating for 24 hours at 37° C., 5% CO2, the cells are treated with test compound (1% DMSO final concentration) and incubated for 16 hours at 37° C., 5% CO2. EGF (Millipore, 01-107) is added at a final concentration of 60 ng/mL and incubated for 10 minutes. The medium is removed, the cells are lysed, and phospho EGFR is measured (Meso Scale Diagnostics, N31CB-1).
as §1

The target of test [1] is human full length His-tagged BTK (Homo sapiens (Human), UniProt Q06187). Put plainly: BTK Lanthscreen Eu Kinase Binding assay. The note with it: TR-FRET tracer displacement, 2 nM BTK, 30 min pre-incubation. On the procedure:
BTK Lanthscreen® Eu Kinase Binding assay:
A Lanthscreen® Eu Kinase Binding assay (Life Technologies) was performed to quantitate the ability of test compounds to bind to BTK. The assay is based on the binding and displacement of Alexa Fluor647-labeled Kinase Tracer #236 to the ATP-binding site of human full length His-tagged BTK (Life Technologies cat # PV3587) with TR-FRET detection using a europium-labeled anti-His antibody. The assay was assembled in 384-well low volume NBS black plates (Corning) where 2 nM BTK and test compound in DMSO at varying concentrations were pre-incubated for 30 min at 28° C. in assay buffer consisting of 50 mM HEPES, pH 7.4, 10 mM MgCl2, 1 mM EGTA. 100 μM Na3VO4 and 0.01% Brij 35. Then, 2 nM of Eu-anti His antibody and 30 nM Kinase Tracer were added and incubated for […] at 28° C. Following incubation, TR-FRET signal was read on an Envision plate reader (Excitation: 340 nm; Emissions: 615 and 665 nm). The 665: 615 nm emission ratio was calculated and converted to POC compared to control and blank wells.

Consider 18 molecules from US10570118B2, “Isoquinolones as BTK inhibitors” (Boehringer Ingelheim International GmbH, priority 2016, dated 2020).

By IC50 is commonly meant the midpoint of a concentration-inhibition curve.

The structures appear in SMILES notation.

Chain of EGFR (P00533 25-1210): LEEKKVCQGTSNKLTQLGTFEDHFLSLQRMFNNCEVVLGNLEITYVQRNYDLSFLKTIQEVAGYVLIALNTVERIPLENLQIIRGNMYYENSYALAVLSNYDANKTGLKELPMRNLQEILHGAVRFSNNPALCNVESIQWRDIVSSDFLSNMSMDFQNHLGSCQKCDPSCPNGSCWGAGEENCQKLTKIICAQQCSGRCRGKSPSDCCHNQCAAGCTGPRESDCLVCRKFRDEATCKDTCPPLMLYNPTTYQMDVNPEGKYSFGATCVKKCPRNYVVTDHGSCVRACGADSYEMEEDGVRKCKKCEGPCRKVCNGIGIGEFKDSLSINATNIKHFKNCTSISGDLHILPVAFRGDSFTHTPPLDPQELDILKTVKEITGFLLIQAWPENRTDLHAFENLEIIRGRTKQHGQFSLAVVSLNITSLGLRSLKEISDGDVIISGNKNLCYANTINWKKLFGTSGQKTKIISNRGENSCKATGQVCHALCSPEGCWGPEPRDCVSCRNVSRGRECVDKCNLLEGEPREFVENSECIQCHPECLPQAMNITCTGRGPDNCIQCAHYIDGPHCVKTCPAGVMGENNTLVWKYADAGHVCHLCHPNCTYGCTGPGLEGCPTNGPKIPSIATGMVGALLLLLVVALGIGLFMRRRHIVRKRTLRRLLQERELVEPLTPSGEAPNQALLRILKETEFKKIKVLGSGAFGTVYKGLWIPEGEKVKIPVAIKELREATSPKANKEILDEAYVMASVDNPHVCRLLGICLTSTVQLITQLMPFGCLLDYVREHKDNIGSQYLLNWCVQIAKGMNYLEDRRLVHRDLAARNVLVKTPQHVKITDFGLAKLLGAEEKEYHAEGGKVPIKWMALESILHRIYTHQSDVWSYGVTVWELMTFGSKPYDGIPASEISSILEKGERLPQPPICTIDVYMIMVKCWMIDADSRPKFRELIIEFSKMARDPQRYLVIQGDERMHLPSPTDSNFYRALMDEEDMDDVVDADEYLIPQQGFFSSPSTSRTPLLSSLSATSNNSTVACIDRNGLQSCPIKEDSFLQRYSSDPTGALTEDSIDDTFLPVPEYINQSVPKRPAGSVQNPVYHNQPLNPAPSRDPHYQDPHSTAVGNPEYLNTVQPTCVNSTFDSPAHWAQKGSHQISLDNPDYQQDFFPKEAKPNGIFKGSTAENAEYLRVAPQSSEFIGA
Chain of BTK (Q06187 whole entry): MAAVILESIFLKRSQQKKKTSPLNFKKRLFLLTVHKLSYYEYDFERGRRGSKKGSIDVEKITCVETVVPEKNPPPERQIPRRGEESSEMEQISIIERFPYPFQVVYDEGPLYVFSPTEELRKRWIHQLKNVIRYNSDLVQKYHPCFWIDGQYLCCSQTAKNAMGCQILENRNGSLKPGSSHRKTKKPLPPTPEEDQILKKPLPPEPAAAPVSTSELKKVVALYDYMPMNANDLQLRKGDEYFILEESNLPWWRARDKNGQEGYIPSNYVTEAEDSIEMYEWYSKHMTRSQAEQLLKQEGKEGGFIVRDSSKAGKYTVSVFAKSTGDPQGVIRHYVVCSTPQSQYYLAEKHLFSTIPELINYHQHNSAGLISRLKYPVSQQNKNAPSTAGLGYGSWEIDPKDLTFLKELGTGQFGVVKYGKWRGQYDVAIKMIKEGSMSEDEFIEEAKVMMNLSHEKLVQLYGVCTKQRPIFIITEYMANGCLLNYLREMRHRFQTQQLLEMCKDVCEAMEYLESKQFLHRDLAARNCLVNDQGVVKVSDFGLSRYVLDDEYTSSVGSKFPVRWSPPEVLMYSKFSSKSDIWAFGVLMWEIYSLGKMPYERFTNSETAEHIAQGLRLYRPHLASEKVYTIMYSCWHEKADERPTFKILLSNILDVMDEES
Chain of human full length His-tagged BTK (Q06187 whole entry): as above

`C=CC(=O)N1CC(c2cc3cc(C4CC4)ccc3c(=O)n2-c2cccc(-c3cccc(C(N)=O)c3)c2CO)C1` [Example 5]: the IC50 at BTK is 100 nM; on EGFR, more than 10000 nM; in test [1], 5.2 nM.
For `C=CC(=O)N1CC(c2cc3cc(C4CC4)ccc3c(=O)n2-c2cccc(-c3cc(C(N)=O)n(C)c3)c2CO)C1` [Example 7] the same measures were 5.6 nM, more than 10000 nM and 0.7 nM.
Consider `C=CC(=O)N1CC(c2cc3cc(C4CC4)cc(F)c3c(=O)n2-c2cccc(-c3cc(C(N)=O)n(C)c3)c2CO)C1` [Example 40], for which the figures for the IC50 (at BTK; on EGFR; in test [1]) were 4.6 nM, more than 10000 nM and 0.42 nM, respectively.
With `C=CC(=O)N(C)Cc1cc2cc(C3CC3)ccc2c(=O)n1-c1cccc(-c2cc(C(N)=O)n(C)c2)c1CO` [Example 18], the values for the IC50 (at BTK; on EGFR; in test [1]) were 160 nM, more than 10000 nM and 59 nM, respectively.
In the case of `C=CC(=O)N1CC(c2cc3cc(C4CC4)ccc3c(=O)n2-c2cccc(-c3cc(N)ncn3)c2CO)C1` [Example 21], the half-maximal inhibitory concentration (IC50) was 1.9 nM at BTK, more than 10000 nM on EGFR and 0.48 nM in test [1].
For `C=CC(=O)N1CC(c2cc3cc(C4CC4)ccc3c(=O)n2-c2cccc(-c3cc(N)c(=O)n(C)c3)c2CO)C1` [Example 11] the same measures were 21 nM, more than 10000 nM and 1.9 nM.
As for `CC#CC(=O)N1CC(Cc2cc3cc(C4CC4)ccc3c(=O)n2-c2cccc(-c3cc(C(N)=O)n(C)c3)c2CO)C1` [Example 8], the IC50 on BTK is 96 nM; at EGFR, more than 10000 nM; in test [1], 11 nM.
For `N#CN1CC(c2cc3cc(C4CC4)ccc3c(=O)n2-c2cccc(-c3cc(N)ncn3)c2CO)C1` [Example 12], in that order: 28 nM, 4500 nM and 3.3 nM.
Turning to `C=CC(=O)N1CC(c2cc3cc(C4CC4)ccc3c(=O)n2-c2cccc(-c3ccnc(N)c3)c2CO)C1` [Example 17], the IC50 on BTK is 3.7 nM; on EGFR it was more than 10000 nM.
As to `C=CC(=O)N1CCC(c2cc3cc(C4CC4)ccc3c(=O)n2-c2cccc(-c3cc(N)c(=O)n(C)c3)c2CO)C1` (centres unmarked) [Example 16], the IC50 on BTK is 92 nM; at EGFR, more than 10000 nM; in test [1], 20 nM.
As to `C=CC(=O)N1CC(Cc2cc3cc(C4CC4)ccc3c(=O)n2-c2cccc(-c3cc(C(N)=O)n(C)c3)c2CO)C1` [Example 2], the figures for the IC50 (at BTK; at EGFR; in test [1]) were 36 nM, more than 10000 nM and 4 nM, respectively.
For `C=CC(=O)N1CC(Cc2cc3cc(C4CC4)ccc3c(=O)n2-c2cccc(-c3cc(N)ncn3)c2CO)C1` [Example 14], in that order: 85 nM, more than 10000 nM and 19 nM.
In the case of `C=CC(=O)N1CC(c2cc3cc(C4CC4)ccc3c(=O)n2-c2cccc(-c3cc(C(N)=O)n(C)c3)c2CO)C1` (single isomer, unassigned) [Example 43], the IC50 on BTK is 3.6 nM; at EGFR it was more than 10000 nM; in test [1], 0.56 nM.
`C=CC(=O)N1CCC(c2cc3cc(C4CC4)ccc3c(=O)n2-c2cccc(-c3cc(C(N)=O)n(C)c3)c2CO)C1` (centres unmarked) [Example 13]: the IC50 is 12 nM at BTK, more than 10000 nM at EGFR and 2.4 nM in test [1].
For `C=CC(=O)N1CC(c2cc3cc(C4CC4)ccc3c(=O)n2-c2cccc(-c3ccnc(NC)c3)c2CO)C1` [Example 15], the IC50 at BTK was 8.8 nM; at EGFR, more than 10000 nM; in test [1] it was 4.2 nM.
For `C=CC(=O)N1CCC1Cc1cc2cc(C3CC3)ccc2c(=O)n1-c1cccc(-c2cc(C(N)=O)n(C)c2)c1CO` (centres unmarked) [Example 6], in that order: 16 nM, 4500 nM and 3.9 nM.
For `C=CC(=O)N1CC(c2cc3cc(C4CC4)ccc3c(=O)n2-c2cccc(-c3ccnc(N)c3)c2Cl)C1` [Example 20], in that order: 37 nM, 3200 nM and 8.9 nM.
`Cn1cc(-c2cccc(-n3c(C4CN(C#N)C4)cc4cc(C5CC5)ccc4c3=O)c2CO)cc1C(N)=O` [Example 1]: the results for the IC50 (on BTK; at EGFR; in test [1]) were 4.3 nM, 4700 nM and 0.7 nM, respectively.
